According to ChEMBL document CHEMBL1201862, “PubChem BioAssay data set” (2004):
Active and inactive are the calls of the source.

How the values were obtained:
[1] = target: Induced myeloid leukemia cell differentiation protein Mcl-1 (Homo sapiens, UniProt Q07820); type: functional
[2] = target: Eukaryotic translation initiation factor 4E (Mus musculus, UniProt P63073); assay: blockers of eIF4G binding by eIF4E – biochemical, TR-FRET, dose response (AID 855); type: functional;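 also: potency for disrupting eIF4E binding to eIF4GI seen as loss of FRET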
Chain of Eukaryotic translation initiation factor 4E (P63073 whole entry): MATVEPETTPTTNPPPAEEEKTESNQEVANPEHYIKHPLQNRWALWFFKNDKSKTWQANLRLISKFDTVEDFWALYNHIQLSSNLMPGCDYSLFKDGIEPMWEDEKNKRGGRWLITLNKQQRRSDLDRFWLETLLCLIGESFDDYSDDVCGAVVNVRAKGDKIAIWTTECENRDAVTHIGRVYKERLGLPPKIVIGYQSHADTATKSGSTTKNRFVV

SUMO-activating enzyme [3] = target: T1, SUMO-activating enzyme (Homo sapiens, UniProt Q9UBT2); assay: blockers of UBC9-mediated SUMO conjugation – biochemical, AlphaScreen, SUMOylation inhibitor project, confirmation (AID 2018); type: functional
T1 sequence (Q9UBE0 whole entry): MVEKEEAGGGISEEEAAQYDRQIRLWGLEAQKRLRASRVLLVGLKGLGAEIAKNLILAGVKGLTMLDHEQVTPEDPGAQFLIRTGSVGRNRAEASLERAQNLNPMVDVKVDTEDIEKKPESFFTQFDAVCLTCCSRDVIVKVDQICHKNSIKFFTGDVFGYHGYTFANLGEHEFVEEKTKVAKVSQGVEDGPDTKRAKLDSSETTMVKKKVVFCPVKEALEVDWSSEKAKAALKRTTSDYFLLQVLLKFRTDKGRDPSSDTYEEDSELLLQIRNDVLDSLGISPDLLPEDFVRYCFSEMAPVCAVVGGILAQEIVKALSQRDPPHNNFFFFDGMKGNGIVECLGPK
T1 sequence (Q9UBT2 whole entry): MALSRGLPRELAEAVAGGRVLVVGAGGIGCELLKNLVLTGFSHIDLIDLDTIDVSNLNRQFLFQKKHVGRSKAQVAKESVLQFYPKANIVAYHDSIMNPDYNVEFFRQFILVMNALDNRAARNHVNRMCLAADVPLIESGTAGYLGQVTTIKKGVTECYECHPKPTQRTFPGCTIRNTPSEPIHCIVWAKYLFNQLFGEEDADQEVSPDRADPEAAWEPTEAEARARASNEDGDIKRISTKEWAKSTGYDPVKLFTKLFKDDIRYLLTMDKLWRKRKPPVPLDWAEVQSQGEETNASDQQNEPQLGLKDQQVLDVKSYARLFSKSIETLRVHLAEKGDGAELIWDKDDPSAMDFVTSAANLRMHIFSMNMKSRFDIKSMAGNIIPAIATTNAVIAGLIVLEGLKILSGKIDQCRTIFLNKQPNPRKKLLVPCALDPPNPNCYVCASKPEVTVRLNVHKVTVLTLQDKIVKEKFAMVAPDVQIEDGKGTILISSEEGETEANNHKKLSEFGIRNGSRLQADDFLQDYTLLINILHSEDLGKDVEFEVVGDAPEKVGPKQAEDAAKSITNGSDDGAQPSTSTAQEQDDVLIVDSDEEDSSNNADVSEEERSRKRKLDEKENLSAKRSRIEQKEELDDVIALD

SUMO-activating enzyme [4] = target: T1, SUMO-activating enzyme; assay: blockers of SAE1/SAE2–UBC9 SUMO transfer – biochemical, HTRF, uHTS, primary screen (AID 2006); type: protein-complex assay
Genome polyprotein = Genome polyprotein (Hepatitis C virus, UniProt Q2Q167); assay: disruption of hepatitis C core self-association – biochemical, TR-FRET, dose response (AID 2159); design: species or system Hepacivirus hominis;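 also: blocks dimerization of HCV core protein measured by TR-FRET between tagged core106 pairs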
Chain of Genome polyprotein (Q2Q167 whole entry): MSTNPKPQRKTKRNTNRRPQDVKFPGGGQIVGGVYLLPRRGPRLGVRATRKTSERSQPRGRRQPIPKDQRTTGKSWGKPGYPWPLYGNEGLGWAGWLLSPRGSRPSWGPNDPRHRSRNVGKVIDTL

[5] = target: Intestinal-type alkaline phosphatase (Mus musculus, UniProt P24822); assay: PubChem AID 488874; type: functional
Chain of Intestinal-type alkaline phosphatase (Mus musculus, UniProt P24822) (P24822 whole entry): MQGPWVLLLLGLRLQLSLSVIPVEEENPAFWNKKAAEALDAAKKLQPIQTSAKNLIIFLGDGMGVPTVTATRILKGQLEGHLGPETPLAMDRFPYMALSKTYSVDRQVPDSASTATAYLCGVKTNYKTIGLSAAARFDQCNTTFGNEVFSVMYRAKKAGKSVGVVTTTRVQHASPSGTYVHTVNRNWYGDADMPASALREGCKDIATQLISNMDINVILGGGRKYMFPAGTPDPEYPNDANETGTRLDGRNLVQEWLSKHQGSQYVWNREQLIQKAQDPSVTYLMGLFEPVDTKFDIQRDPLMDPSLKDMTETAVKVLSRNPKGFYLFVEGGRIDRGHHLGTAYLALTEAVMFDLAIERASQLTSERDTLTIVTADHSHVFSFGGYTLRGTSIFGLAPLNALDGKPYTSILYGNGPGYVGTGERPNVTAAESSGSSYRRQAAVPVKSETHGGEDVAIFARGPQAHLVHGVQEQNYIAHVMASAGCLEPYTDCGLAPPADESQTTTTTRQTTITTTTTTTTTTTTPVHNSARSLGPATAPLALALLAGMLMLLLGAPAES

[6] = target: T2, Intestinal-type alkaline phosphatase (Homo sapiens, UniProt P09923); assay: human intestinal alkaline phosphatase activators, dose response, biochemical, luminescence, uHTS hits (AID 463120); type: functional
T2 sequence (P09923 whole entry): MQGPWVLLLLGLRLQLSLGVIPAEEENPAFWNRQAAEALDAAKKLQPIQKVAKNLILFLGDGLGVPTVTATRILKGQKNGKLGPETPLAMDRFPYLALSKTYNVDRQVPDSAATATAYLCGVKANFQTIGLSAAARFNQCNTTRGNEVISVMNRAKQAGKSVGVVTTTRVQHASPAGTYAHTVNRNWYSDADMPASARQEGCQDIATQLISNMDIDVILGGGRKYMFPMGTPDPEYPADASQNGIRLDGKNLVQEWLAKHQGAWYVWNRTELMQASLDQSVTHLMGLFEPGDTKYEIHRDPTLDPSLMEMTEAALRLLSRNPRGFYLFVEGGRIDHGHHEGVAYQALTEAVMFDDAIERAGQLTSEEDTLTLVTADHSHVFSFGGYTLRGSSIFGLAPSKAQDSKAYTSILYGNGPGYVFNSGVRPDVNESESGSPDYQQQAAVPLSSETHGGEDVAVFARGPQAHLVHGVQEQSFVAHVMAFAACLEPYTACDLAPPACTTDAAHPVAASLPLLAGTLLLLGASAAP

[7] = target: T2, Intestinal-type alkaline phosphatase; assay: activation of human intestinal alkaline phosphatase – biochemical, luminescent, uHTS hits, set 2, dose response (AID 488817); type: functional;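 also: potency of activators that raise enzyme activity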
[8] = target: T3, Alkaline phosphatase, tissue-nonspecific isozyme (Homo sapiens, UniProt P05186); assay: activation of tissue-nonspecific alkaline phosphatase – biochemical, TNAP isozyme, human IAP uHTS hits, selectivity assay for human IAP activator project, dose response (AID 488886); type: functional;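 also: potency of compounds raising TNAP activity as a selectivity check on IAP activators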
T3 sequence (P05186 whole entry): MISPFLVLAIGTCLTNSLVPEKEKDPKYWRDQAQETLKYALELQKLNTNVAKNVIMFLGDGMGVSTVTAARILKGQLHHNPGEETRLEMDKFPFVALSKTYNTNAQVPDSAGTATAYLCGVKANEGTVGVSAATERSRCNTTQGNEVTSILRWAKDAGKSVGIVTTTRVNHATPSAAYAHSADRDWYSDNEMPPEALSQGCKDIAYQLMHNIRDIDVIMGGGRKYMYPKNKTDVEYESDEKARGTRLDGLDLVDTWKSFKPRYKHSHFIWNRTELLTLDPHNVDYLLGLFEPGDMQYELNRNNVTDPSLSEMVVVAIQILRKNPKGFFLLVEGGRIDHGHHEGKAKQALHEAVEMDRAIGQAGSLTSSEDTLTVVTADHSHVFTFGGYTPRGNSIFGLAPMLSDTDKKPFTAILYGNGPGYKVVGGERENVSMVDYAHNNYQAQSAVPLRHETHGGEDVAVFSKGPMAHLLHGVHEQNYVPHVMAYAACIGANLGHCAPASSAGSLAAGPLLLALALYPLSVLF

Troponin, cardiac muscle = Troponin, cardiac muscle (Homo sapiens, UniProt P19429+P45379+P63316); assay: Fluorescence-based biochemical high throughput dose response assay for activators of the calcium sensitivity of cardiac Regulated Thin Filaments (RTF). [Related pubchem assays (depositor defined):AID493008, AID493018, AID504382, AID504383]; type: protein-complex assay

Chain of Induced myeloid leukemia cell differentiation protein Mcl-1 (Q07820 whole entry): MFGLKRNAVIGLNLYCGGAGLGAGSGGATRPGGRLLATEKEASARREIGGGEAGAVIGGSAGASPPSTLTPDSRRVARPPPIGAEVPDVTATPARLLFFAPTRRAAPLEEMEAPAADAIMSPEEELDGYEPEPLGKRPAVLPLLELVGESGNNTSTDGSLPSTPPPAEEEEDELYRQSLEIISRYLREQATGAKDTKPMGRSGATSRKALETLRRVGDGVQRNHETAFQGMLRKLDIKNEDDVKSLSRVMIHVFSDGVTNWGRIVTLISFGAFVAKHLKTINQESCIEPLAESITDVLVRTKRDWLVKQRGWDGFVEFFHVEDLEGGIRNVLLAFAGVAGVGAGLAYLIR

Compound | IC50 [1] | IC50 [2] | IC50 (SUMO-activating enzyme [3]) | IC50 (SUMO-activating enzyme [4]) | IC50 (Genome polyprotein) | IC50 [5] | EC50 [6] | EC50 [7] | EC50 [8] | EC50 (Troponin, cardiac muscle)
CC(=O)c1sc2nc(CSc3nnnn3-c3ccccc3)[nH]c(=O)c2c1C | 1.71 µM (active) | 50 µM (inactive) | 6.5 µM (active) | 27.9 µM (active) | > 49.8 µM (not active) |  |  |  |  | 
CC(C)Oc1ccc(CCC(=O)NNC(=S)NCc2ccccc2)cc1 |  |  |  |  |  | 60.3 µM (active) | 18.8 µM (active) | 21.8 µM (active) | 21.1 µM (active) | 
O=C1c2ccccc2C(Nc2cccnc2)N1Cc1ccccc1Cl (centres undefined) |  |  |  |  |  |  |  |  |  | > 71.5 µM (inactive)
OC(c1nc2cc(F)ccc2[nH]1)C(O)c1nc2cc(F)ccc2[nH]1 (centres undefined) |  |  |  |  |  | 58.5 µM (active) | 4.97 µM (active) | 9.13 µM (active) | 9.85 µM (active) | 
